Measured values: US20070185431A1, “Galvanic Current Skin Treatment” (priority 2006, published 2007)
“Also recorded” adds a separate entry of the source.

Legend:
[1] = cited from earlier work
[2] = Franz cell skin penetration of the other compounds with and without current (Phoresor)
Excerpt: Thus, for a 1% theobromine solution, a Tris-glycine buffer at pH 12 was chosen. […] By putting theobromine into 0.1N NaOH at pH 12, this compound is ionized to a negative charge. No information was readily available regarding the pKa of Ergothioneine (Thiotaine) but based on its structure, it would appear to have a relatively low pKa and thus be negatively charged at pH 8.0.
For experiments, the electrodes from the Phoresor were applied to the Franz unit with the negative electrode in contact with the skin's surface and in contact with the compound solution being applied. Each compound was tested on 5 skins for skin penetration without current and 5 skins for skin penetration with current.
Note that the time=0 for the bar graphs discussed below represents the time at which the galvanic current was terminated.
A 60 microliter solution of aminophylline in PBS (pH 7.0) gelled slightly with 0.5% HEC was applied to human breast skin mounted in Franz cell chambers. A 0.4 mAmp current was applied for either 6.25 minutes (for a 2.5 mAmp×time dose) or 12.5 minutes to produce a 5 mAmp×time dose. At 6 hours samples were withdrawn for analysis and a second dose applied only to the skin receiving a 2.5 mAmp×time pulse at T=0. Samples were withdrawn for analysis at T=12 hours and again at T=24 hours.
Thus, its rate of dissociation is not going to be high in an aqueous solvent. in order to shift the equilibrium to the anion form of theobromine we prepared a 1% solution in Tris-glycine buffer adjusted to pH 12 with IN NaOH. Franz studies were then carried out using a 2.5 mAmp×time pulse.

[3] = Skin penetration of caffeine in modified Franz cells with galvanic current application device; type: in vitro ADME, human
Excerpt: According to one embodiment, another method and apparatus relates to a modified Franz cell instrument and method of testing iontophoresis across a cellular membrane and the effects of an electrical current on the membrane after the electrical current has been removed. […] In this embodiment, a electrical current application device 18 is operably coupled to the Franz cell via a copper wire that connects the two electrodes of the device 18 to the Franz cell. In this embodiment, the negative electrode 16 contacts the surface of the cellular membrane via a copper wafer electrode while the positive electrode 14 is placed in the lower Franz fluid reservoir 12 to complete the circuit. Alternatively, any configuration that allows for application of an electrical current to the cellular membrane placed in the Franz cell is contemplated. According to one embodiment, the apparatus as set forth in FIG. 2 can be used to test the effects of applying electrical current to a cellular membrane.
To perform this examination, three modified Franz cells—each similar to the apparatus depicted in FIG. 2—were placed in series. […] As is understood in the art, 1 milliamp equals 1,000 microamps.
To determine the effectiveness of the current application device in enhancing the penetration of caffeine through human skin, a 1% caffeine solution was prepared in saline solution at a pH of 7.2 and an infinite dose (500 micro liters) applied to the surface of human skin mounted onto Franz cell units. One set of skin samples was left untreated to serve as the control group for passive skin penetration of caffeine. A second set was treated with one 3 minute cycle of the Galvanic unit delivering 120 microamps per skin. The standard convention for expressing the current “dose” the skin receives is Current×Time. Thus, the skin in this group received 360 microamp-minutes of current (120 microamps×3 minutes). A third group of skins were treated with 3 cycles of current (1080 microamp-minutes [shown as 1.1 mA]), and the fourth group received a dose of 4.32 mAmp-minutes (12 cycles at 3 minutes/cycle delivering 120 microamps).
Samples were collected at 6, 12 and 24 hours and the amount of caffeine present in the receptor fluid determined by HPLC.

[4] = Skin penetration of caffeine in Franz cells with iontophoretic instrument, pre-selected current dose; type: in vitro ADME, human
Method: For the first studies, Franz cells were dosed once with either: 1) no current (control), 2) 2 mAmp-minutes, 3) 5 mAmp-minutes, or 4)10 mAmp-minutes. Samples of the Franz receptor fluid were analyzed at 6, 12 and 24 hours after the current dose.
Because a consumer might use this product morning and evening, we separated the dose treatments by 10 hours. The experimental protocol involved applying a saline solution of 1% caffeine (pH 7.2) to human skins mounted in Franz cells. The groups were: 1) control-no dosing, 2) a dose of 2.5 mAmp-minute (0.375 mAmps for 6.67 minutes) repeated at 10 hours, and 3) a single 5 mAmp-minute. All groups contained 5 replicates. For these studies, the caffeine was only applied to the skin during the dosing phase. When a second current application was applied to the 2.5 mAmp-minute group at 10 hours, not only was the caffeine solution added to these skin samples, but it was also placed on the 5 mAmp-minute skins even though these were not treated again with current. This controlled for any skin penetration simply due to the presence of the caffeine solution on the skin. After dosing was completed any remaining caffeine solution was removed from the skin.
Because of the long duration of these studies, dosing was usually initiated at 7:00 am and 6 hours later the first samples were collected for analysis. At T=10 hours (5 pm) a second sample was collected and the 2.5 mAmp-minute group dosed a second time. At T=16 hours (11:00 pm) another sample was collected from the lower reservoir, and at T=24 the final samples were collected.
For this study, the caffeine solution was not removed from skins immediately after dosing but left on the skin for the duration of the experiment.
We conducted dose-response studies to begin to answer this question. For these studies, skins were dosed only once with either 0.6, 1.3, 2.5 or 5 mAmp-minutes with the current held constant at 375 uamps, the maximum output of the Galvanic unit. To each skin 400 microliters of a 1% caffeine in saline solution was applied. In order to minimize evaporation during the study, the caffeine solution was gelled slightly with hydroxyethylcellulose. Six hours after dosing, samples from the lower receptor fluid were collected and analyzed for caffeine.

[5] = cited from earlier work; remark: listed apart in the source

In the case of `NC(=O)NCCC[C@H](N)C(=O)O` [Citrulline], the pKa [1] is given as 9.4.
In the case of `C[N+](C)(C)[C@@H](Cc1c[nH]c(=S)[nH]1)C(=O)[O-]` [Thiotaine, Ergothioneine], the “skin penetration to lower chamber reservoir without current” value ([2]; no current, 24 hours) is reported as “no compound had penetrated the skin”, the “relative skin permeability among the compounds studied” value ([2]; simple buffer systems) is reported as “least permeable” and the “levels in the lower reservoir with current” value ([2]; single dose of 2.5 mAmp×time, 12 and 24 hours) is reported as “measurable Thiotaine levels in the lower reservoir”.
With `Cn1c(=O)c2[nH]cnc2n(C)c1=O` [aminophylline] the “increase in skin flux” value [2] was “only a modest increase in skin flux”, the “skin penetration enhancement, FIG. 9A” value [2] was “produced enhanced skin penetration” and the “skin penetration without current” value [2] was “relatively high skin penetration”. The “enhancement in skin penetration over control values, extrapolated” value ([2]; human, 1 %) was 23%, the “enhancement in skin penetration, extrapolated” value ([2]; human, 1 %) was 9% and the “increase in skin penetration” value ([2]; human, 24 h, 1 %) was “approximately 1.7 fold”. For the same compound, the “skin penetration: two treatments of 2.5 mAmp×time versus single 5 mAmp×time pulse” value ([2]; human, 24 h, 1 %, pH 7) was “did not equal the skin penetration seen with a single 5 amp×time pulse” and the pKa [1] was 5.0.
With `Cn1c(=O)c2c(ncn2C)n(C)c1=O` [caffeine] the “penetration enhancement of caffeine through the skin” value ([3]; 1 cycle (360 microamp-minutes)) was “ineffective in causing any detectable penetration enhancement”, the “penetration enhancement of caffeine compared to control” value ([3]; 3 cycles (1080 microamp-minutes), 24 hours) was “some marginal enhancement of penetration; also recorded: some small enhancement in skin penetration” and the “penetration enhancement of caffeine through human skin” value ([3]; 6 cycles (2.2 mAmp-minutes), 24 hours) was “did enhance delivery of caffeine”. For the same compound, the “amount of caffeine that had penetrated skin relative to control group” value ([3]; 12 cycles (4.32 mAmp-minutes), 24 hours, 1% caffeine in saline pH 7.2) was 6 times, the “time at which increase in skin penetration was detectable” value ([3]; 12 cycles (4.32 mAmps-min)) was ≤ 6 h and the “skin penetration: two 2.5 mAmp-minute doses versus one dose” value [4] was “significantly more skin penetration of caffeine than one dose”. The “increase in the penetration of caffeine” value ([4]; 2 mAmp-minute dose, 6 hours after treatment) was 1.5 fold, the “time post-dosing at which penetration enhancement was detectable” value ([4]; 2.5 and 5 mAmp-minute groups, caffeine removed after dosing) was ≤ 6 h and the “increase in the amount of caffeine penetrating the skin” value ([4]; 5 mAmp-minute dose, 6 hours) was 3 fold. For the same compound, the “amount of caffeine present in the receptor as fraction of applied dose” value ([4]; 5 mAmp-minute dose, 24 hours) was 4 % of applied dose, the “time after dosing at which enhanced penetration can be detected” value ([4]; 5 mAmp-minute dose, caffeine solution left on skin) was ≤ 3 h and the “increase in the amount of caffeine penetrating the skin” value ([4]; 10 mAmp-minute dose, 6 hours) was 4 fold. For the same compound, the “amount of caffeine penetrated: 2.5 mAmp-minute dosed twice versus 5 mAmp-minute dosed once” value ([4]; 24 hours) was “no significant difference; also recorded: as much caffeine penetration as a single 5 mAmp-minute dose”, the “effect of a second 5 mAmp-minute dose versus a single 5 mAmp-minute dose” value ([4]; 24 hours, caffeine left on skin) was “no additional accumulation of caffeine; also recorded: does not appear to significantly enhance caffeine skin penetration” and the “caffeine in the receptor without current” value ([4]; control skins, no current, 3 hours) was “no presence of caffeine in the receptor”. The “time after dosing at which skin penetration enhancement can be detected” value ([4]; single 2.5 mAmp-minute dose) was ≤ 3 h, the skin penetration enhancement ([4]; single dose of 0.6 mAmp-minutes at 375 uamps, 6 hours, gelled 1% caffeine) was “will enhance skin penetration” and the “current level above which maximal skin penetration occurs (sigmoidal fit)” value ([4]; single dose, 6 hours) was 3-5 mAmp-minutes. For the same compound, the “penetration enhancement of single 2.5 mAmp-minute dose relative to single 5 mAmp-minute dose” value ([4]; single doses) was “about 50%”.
With `CCOC(=O)c1cccnc1` [ethyl nicotinate] the skin penetration enhancement [2] was “enhanced skin penetration”, the “time after application at which compound is detectable in the lower reservoir fluid” value ([2]; human, 1 %) was ≤ 2 h and the “time at which enhanced effect of current is detectable” value ([2]; human, 1 %) was “about 4 hour”. For the same compound, the “amount of compound in the receptor fluid” value ([2]; human, 24 h, 1 %) was “over 1000 micrograms”.
For `Cn1cnc2c1c(=O)[nH]c(=O)n2C` [theobromine], the “skin penetration from the solvent used” value ([2]; pH 12) is listed as “relatively poorly”, the pKa [1] is listed as 9.9 and the solubility [5] is listed as “virtually insoluble in any solvent except dilute alkali; also recorded: essentially insoluble in any solvent other than alkali”.
